Reference: ChEMBL document CHEMBL3217473, “Discovery of a structurally novel, drug-like and potent inhibitor of peptidylarginine deiminase” (Medchemcomm, 2013)
The source made the active and inactive calls. The calls are words filed in the database; no cut-off is given here.

Key:
[1] = target: T1, Protein-arginine deiminase type-3 (Homo sapiens) (UniProt Q9ULW8); test: Competitive reversible inhibition of human recombinant PAD3 expressed in HEK293T cells assessed as rate of citrullination of BAEE at 10 to 100 uM by Michaelis-Menten equation analysis using colorimetry; assay type: cell-based; conditions: HEK-293T
T1 sequence (whole entry): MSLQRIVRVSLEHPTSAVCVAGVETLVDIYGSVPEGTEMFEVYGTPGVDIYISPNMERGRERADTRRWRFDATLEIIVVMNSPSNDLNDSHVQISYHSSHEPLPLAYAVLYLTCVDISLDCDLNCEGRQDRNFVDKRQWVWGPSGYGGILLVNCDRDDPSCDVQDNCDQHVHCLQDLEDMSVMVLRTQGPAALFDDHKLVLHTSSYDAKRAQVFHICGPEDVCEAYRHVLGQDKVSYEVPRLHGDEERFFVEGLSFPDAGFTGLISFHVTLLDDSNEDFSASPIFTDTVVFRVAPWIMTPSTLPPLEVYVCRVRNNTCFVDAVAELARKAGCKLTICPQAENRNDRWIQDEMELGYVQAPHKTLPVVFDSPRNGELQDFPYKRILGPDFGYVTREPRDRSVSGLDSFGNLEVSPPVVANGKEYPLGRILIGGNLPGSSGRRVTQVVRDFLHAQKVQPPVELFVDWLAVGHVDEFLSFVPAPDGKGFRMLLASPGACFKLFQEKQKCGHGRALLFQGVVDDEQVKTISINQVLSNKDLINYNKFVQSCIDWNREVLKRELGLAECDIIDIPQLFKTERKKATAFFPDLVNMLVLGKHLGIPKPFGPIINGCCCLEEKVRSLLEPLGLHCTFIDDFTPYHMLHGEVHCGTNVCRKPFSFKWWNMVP

NSC [2] = test: Inhibition of thapsigargin-induced cell death in human NSC assessed as increase in cell survival up to 1 mM treated 15 mins prior to thapsigargin addition measured after 24 hrs drug treatment by methylene blue assay; assay type: functional, cell-based
HEK-293T [3] = test: Inhibition of thapsigargin-induced cell death in human HEK293T cells overexpressing human recombinant PAD3 assessed as increase in cell survival at 10 uM treated 15 mins prior to thapsigargin addition measured after 24 hrs drug treatment by methylene blue assay; assay type: functional, cell-based
NSC [4] = test: Inhibition of thapsigargin-induced cell death in human NSC assessed as increase in cell survival at 100 nM treated 15 mins prior to thapsigargin addition measured after 24 hrs drug treatment by methylene blue assay; assay type: functional, cell-based
NSC [5] = test: Cytotoxicity against human NSC assessed as decrease in cell survival at 0.1 to 1000 uM after 24 hrs by methylene blue assay; assay type: cell-based
[6] = target: T1, Protein-arginine deiminase type-3 (Homo sapiens); test: Inhibition of human recombinant PAD3 expressed in HEK293T cells assessed as conversion of BAEE to sodium benzoyl-L-citrulline at 100 uM by colorimetric analysis; assay type: cell-based; conditions: HEK-293T
[7] = target: T1, Protein-arginine deiminase type-3 (Homo sapiens); test: Inhibition of human recombinant PAD3 expressed in HEK293T cells assessed as conversion of BAEE to sodium benzoyl-L-citrulline up to 1 mM by colorimetric analysis; assay type: cell-based; conditions: HEK-293T
HEK-293T [8] = test: Inhibition of thapsigargin-induced cell death in human HEK293T cells overexpressing human recombinant PAD3 assessed as increase in cell survival at 100 uM treated 15 mins prior to thapsigargin addition measured after 24 hrs drug treatment by methylene blue assay; assay type: functional, cell-based
NSC [9] = test: Inhibition of thapsigargin-induced cell death in human NSC assessed as cell survival at <=1 uM treated 15 mins prior to thapsigargin addition measured after 24 hrs drug treatment by methylene blue assay; assay type: functional, cell-based
NSC [10] = test: Inhibition of thapsigargin-induced cell death in human NSC assessed as increase in cell survival at >10 uM treated 15 mins prior to thapsigargin addition measured after 24 hrs drug treatment by methylene blue assay; assay type: functional, cell-based

inhibition [1] | inhibition [6] | inhibition [7] | Structure (SMILES) | inhibition (NSC [2]) | inhibition (HEK-293T [3]) | inhibition (NSC [4]) | Activity (NSC [5]) | inhibition (HEK-293T [8]) | inhibition (NSC [9]) | inhibition (NSC [10])
Active | Active | Active | O=C1CN=C(NCCc2c[nH]c3ccccc23)N1 | Active | Active | Active | Non-toxic | – | – | –
– | – | – | N=C(CCl)NCCC[C@H](NC(=O)c1ccccc1)C(N)=O | – | – | – | – | Active | inactive | Active
